Assay [1] concerns the target cIAP-1 BIR-3 (Homo sapiens, UniProt Q13490). In words: Fluorescence polarization binding affinity to cIAP-1 BIR-3 (competition with AbuRPF-K(5-Fam)-NH2). The settings on record: 5 nM labeled peptide, 40 nM BIR3, 15 min at RT, pH 7.5; reported as ranges; read-out: KD (c-IAP-1 BIR3). The procedure:
(§1) The binding affinities of the compounds are reported as a KD value (μM). Briefly, various concentrations of test peptides were mixed with 5 nM of the fluorescently labeled peptide (i.e., a mutated N-terminal Smac peptide—AbuRPF-K(5-Fam)-NH2) and 40 nM of the respective IAP BIR3 for 15 min at RT in […] of 0.1M Potassium Phosphate buffer, pH 7.5 containing […] bovine g-globulin. Following incubation, the polarization values (mP) were measured on a Victor2V (available from PerkinElmer Life Sciences) using a 485 nm excitation filter and a 520 nm emission filter. The reported KD values are supplied as ranges (A=<0.1 μM, B=0.1 μM to 1 μM, C>1 μM to 10 μM, D=>10 μM).
(Fluorescence polarisation rises when a labelled molecule tumbles more slowly, as on binding a larger partner.)

Assay [2] has as its system SK-OV-3 cells. In words: Growth inhibition of ovarian cancer cell line SK-OV-3 (MTT assay, cell survival). Format: cell-based. The settings on record: Homo sapiens, drug concentration that results in 50% cell survival, 72 hrs incubation, reported as ranges. Here is the method: Compounds of the invention also were tested for their ability to inhibit the growth of an ovarian cancer cell line, SK-OV-3. A known assay previously used for measuring cell growth (as described in Hansen, M. B., Nielsen, S. E., and Berg, K. (1989) J. Immunol. Methods 119, 203-210 and incorporated herein by reference in its entirety) was used. Briefly, SK-OV-3 cells are seeded in 96-well plates in McCoy's medium containing 10% fetal bovine serum albumin (5,000 per well) and incubated overnight at 37° C. The next day, test compounds are added at various concentrations (0.003-10 μM) and the plates are incubated at 37° C. for an additional 72 hrs. This incubation time was considered to be optimal for measuring inhibitory effects of the different compounds tested. 50 microliters of 5 mg/mL MTT reagent is added to each well and the plates are incubated at 37° C. for another three (3) hours. At the end of the three (3) hour incubation period, 50 microliters of DMSO is added to each well to dissolve cells and the optical density (OD) of the wells is measured with a microplate reader (Victor^2 1420, Wallac, Finland) at 535 nm. Cell survival (CS) was calculated using the following equation: CS=(OD treated well/mean OD control wells)×100%.
The CC50 (reported in the following tables), is defined as the drug concentration that results in 50% cell survival (CS), and is derived by calculating the point where the dose-response curve crosses the 50% CS point using GraphPad Prism. The reported CC50 values are supplied as ranges (A=<0.1 μM, B=0.1 μM to 1 μM, C=>1 μM to 10 μM, D=>10 μM).
For orientation: Formazan colour is commonly taken as a measure of viable cells.

Assay [3] has as its target T1, XIAP BIR-3 (Homo sapiens, UniProt P98170).
T1 construct: 40 nM of the respective IAP BIR3
In words: Fluorescence polarization binding affinity to XIAP BIR-3 (competition with AbuRPF-K(5-Fam)-NH2). The note with it: 5 nM labeled peptide, 40 nM BIR3, 15 min at RT, pH 7.5; reported as ranges. Here is the method: as §1

Among the data in patent US8399683B2 (TetraLogic Pharmaceuticals, priority 2008, dated 2013) are Kd and CC50 values, retold here.

Structures are written as SMILES.

Sequence of cIAP-1 BIR-3 (Q13490 266-352 limits assumed): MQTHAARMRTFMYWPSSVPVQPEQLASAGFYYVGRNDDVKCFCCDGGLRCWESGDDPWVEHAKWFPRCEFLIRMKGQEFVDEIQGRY
T1 sequence (P98170 241-356 limits assumed): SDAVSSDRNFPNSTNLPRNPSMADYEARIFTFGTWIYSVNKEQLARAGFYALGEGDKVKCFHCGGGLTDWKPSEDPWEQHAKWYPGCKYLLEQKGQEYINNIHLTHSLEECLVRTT

One may read the Kd as the free concentration of one partner at which half of the binding sites on the other are occupied at equilibrium, for simple one-to-one binding. Broadly, the CC50 is the concentration giving 50% cytotoxicity. A low value points to harm at low concentration. In the case of `CN[C@@H](C)C(=O)N[C@H](C(=O)N1CC[C@@H]2[C@H]1[C@@H](c1c[nH]c3cc(F)ccc13)CN2C1CCCC1)C1CCCCC1` [Example 9, N-{1-Cyclohexyl-2-[4-cyclopentyl-6-(6-fluoro-1H-indol-3-yl)-hexahydro-pyrrolo[3,2-b]pyrrol-1-yl]-2-oxo-ethyl}-2-methylamino-propionamide], the Kd in assay [1] was below 100 nM; in assay [3] it was 100 to 1000 nM. The same molecule had a CC50 in assay [2] below 100 nM.

Turning to `CC[C@H](NC(=O)[C@H](C)NC)C(=O)N1CC[C@@H]2[C@H]1[C@@H](c1c[nH]c3ccc(F)cc13)CN2C(C)=O` [Example 67, N-{1-[4-Acetyl-6-(5-fluoro-1H-indol-3-yl)-hexahydro-pyrrolo[3,2-b]pyrrole-1-carbonyl]-propyl}-2-methylamino-propionamide], the Kd in assay [1] and in assay [3] was below 100 nM throughout. This molecule returned a CC50 in assay [2] of 100 to 1000 nM.

Take `CN[C@@H](C)C(=O)N[C@H](C(=O)N1CC[C@@H]2[C@H]1[C@@H](c1c[nH]c3cc(F)ccc13)CN2S(C)(=O)=O)C(C)C` [Example 48, N-{1-[6-(6-Fluoro-1H-indol-3-yl)-4-methanesulfonyl-hexahydro-pyrrolo[3,2-b]pyrrole-1-carbonyl]-2-methyl-propyl}-2-methylamino-propionamide]: the Kd in assay [1] and in assay [3] was below 100 nM in each case. In assay [2], this molecule showed a CC50 below 100 nM.

As to `CN[C@@H](C)C(=O)N[C@H](C(=O)N1CC[C@H]2NCC[C@H]21)C1CCCCC1` [Example 109, N-[1-Cyclohexyl-2-(hexahydro-pyrrolo[3,2-b]pyrrol-1-yl)-2-oxo-ethyl]-2-methylamino-propionamide], the results for the Kd in assay [1] and in assay [3] were 100 to 1000 nM and 1000 to 10000 nM, respectively. For the same molecule, in assay [2], the CC50 was above 10000 nM.

With `CN[C@@H](C)C(=O)N[C@H](C(=O)N1CC[C@H]2NC[C@H](c3c[nH]c4cc(F)ccc34)[C@H]21)C(C)(C)C` [Example 31, N-{1-[6-(6-Fluoro-1H-indol-3-yl)-hexahydro-pyrrolo[3,2-b]pyrrole-1-carbonyl]-2,2-dimethyl-propyl}-2-methylamino-propionamide], the Kd is below 100 nM in assay [1] and 100 to 1000 nM in assay [3]. In assay [2], this molecule yielded a CC50 below 100 nM.

Regarding `CN[C@@H](C)C(=O)N[C@H](C(=O)N1CC[C@@H]2[C@H]1[C@@H](c1c[nH]c3cc(F)ccc13)CN2C(C)=O)[C@@H](C)O` [Example 65, N-{1-[4-Acetyl-6-(6-fluoro-1H-indol-3-yl)-hexahydro-pyrrolo[3,2-b]pyrrole-1-carbonyl]-2-hydroxy-propyl}-2-methylamino-propionamide], the Kd in assay [1] and in assay [3] was below 100 nM throughout. For the same molecule, the CC50 in assay [2] is 100 to 1000 nM.

As for `CC[C@H](NC(=O)[C@H](C)NC)C(=O)N1CC[C@@H]2[C@H]1[C@@H](c1c[nH]c3cc(F)ccc13)CN2C1CCCC1` [Example 6], the Kd in assay [1] and in assay [3] was 100 to 1000 nM throughout. Also, the CC50 in assay [2] is 100 to 1000 nM.

Turning to `CN[C@@H](C)C(=O)N[C@H](C(=O)N1CC[C@@H]2[C@H]1[C@H](c1c[nH]c3cc(F)ccc13)CN2C1CCCC1)[C@@H](C)O` [Example 14, N-{1-[4-Cyclopentyl-6-(6-fluoro-1H-indol-3-yl)-hexahydro-pyrrolo[3,2-b]pyrrole-1-carbonyl]-2-hydroxy-propyl}-2-methylamino-propionamide], the figures for the Kd in assay [1] and in assay [3] were 100 to 1000 nM and above 10000 nM, respectively. The same molecule registered a CC50 in assay [2] above 10000 nM.

Consider `CN[C@@H](C)C(=O)NC(C)C(=O)N1CC[C@@H]2[C@H]1[C@@H](c1c[nH]c3cc(F)ccc13)CN2C(C)=O` (stereo partly drawn) [Example 95], for which the Kd in assay [1] and in assay [3] was below 100 nM each time. The CC50 in assay [2] was in the range of 100 to 1000 nM.

In the case of `CN[C@@H](C)C(=O)N[C@@H](CO)C(=O)N1CC[C@@H]2[C@H]1[C@@H](c1c[nH]c3cc(F)ccc13)CN2S(C)(=O)=O` [Example 52, N-{2-[6-(6-Fluoro-1H-indol-3-yl)-4-methanesulfonyl-hexahydro-pyrrolo[3,2-b]pyrrol-1-yl]-1-hydroxymethyl-2-oxo-ethyl}-2-methylamino-propionamide], the Kd in assay [1] and in assay [3] was below 100 nM in each case. In assay [2], this molecule registered a CC50 of 1000 to 10000 nM.

Regarding `CCN1C[C@H](c2c[nH]c3cc(F)ccc23)[C@@H]2[C@H]1CCN2C(=O)[C@@H](NC(=O)[C@H](C)NC)C1CCCCC1` [Example 18, N-{1-Cyclohexyl-2-[4-ethyl-6-(6-fluoro-1H-indol-3-yl)-hexahydro-pyrrolo[3,2-b]pyrrol-1-yl]-2-oxo-ethyl}-2-methylamino-propionamide], the Kd is below 100 nM in assay [1] and 100 to 1000 nM in assay [3]. The same molecule yielded a CC50 in assay [2] of 100 to 1000 nM.

Regarding `CN[C@@H](C)C(=O)N[C@H](C(=O)N1CC[C@@H]2[C@H]1[C@@H](c1c[nH]c3cc(F)ccc13)CN2C(=O)C(F)(F)F)C1CCCCC1` [Example 37, N-{1-Cyclohexyl-2-[6-(6-fluoro-1H-indol-3-yl)-4-(2,2,2-trifluoro-acetyl)-hexahydro-pyrrolo[3,2-b]pyrrol-1-yl]-2-oxo-ethyl}-2-methylamino-propionamide], the Kd in assay [1] and in assay [3] was below 100 nM each time. Moreover, the CC50 in assay [2] is below 100 nM.

Take `CN[C@@H](C)C(=O)N[C@H](C(=O)N1CC[C@@H]2[C@H]1[C@@H](c1c[nH]c3cc(F)ccc13)CN2c1nccc(Cl)n1)C1CCCCC1` [Example 76, N-{2-[4-(4-Chloro-pyrimidin-2-yl)-6-(6-fluoro-1H-indol-3-yl)-hexahydro-pyrrolo[3,2-b]pyrrol-1-yl]-1-cyclohexyl-2-oxo-ethyl}-2-methylamino-propionamide]: the dissociation constant (Kd) in assay [1] and in assay [3] was below 100 nM throughout. Besides, the CC50 in assay [2] is below 100 nM.

Take `CN[C@@H](C)C(=O)N[C@H](C(=O)N1CC[C@H]2NC[C@@H](c3c[nH]c4ccccc34)[C@H]21)[C@@H](C)OC` [Example 89]: the Kd is 100 to 1000 nM in assay [1] and above 10000 nM in assay [3]. The molecule also yielded a CC50 in assay [2] above 10000 nM.

Regarding `CN[C@@H](C)C(=O)N[C@H](C(=O)N1CC[C@@H]2[C@H]1[C@@H](c1c[nH]c3cc(F)ccc13)CN2C1CCNCC1)C1CCCCC1` [Example 21, N-{1-Cyclohexyl-2-[6-(6-fluoro-1H-indol-3-yl)-4-piperidin-4-yl-hexahydro-pyrrolo[3,2-b]pyrrol-1-yl]-2-oxo-ethyl}-2-methylamino-propionamide], the Kd in assay [1] was below 100 nM; in assay [3], 100 to 1000 nM. This molecule also displayed a CC50 in assay [2] above 10000 nM.

For the molecule `CN[C@@H](C)C(=O)N[C@@H](COC)C(=O)N1CC[C@@H]2[C@H]1[C@@H](c1c[nH]c3cc(F)ccc13)CN2S(C)(=O)=O` [Example 54], the Kd in assay [1] and in assay [3] was below 100 nM in each case. This molecule also showed a CC50 in assay [2] of 100 to 1000 nM.

On to `CC(=O)N1C[C@H](c2c[nH]c3cc(F)ccc23)[C@@H]2[C@H]1CCN2C(=O)[C@@H](NC(=O)[C@H](C)N)C1CCCCC1` [Example 94], for which the Kd in assay [1] and in assay [3] was below 100 nM each time. In assay [2], this molecule displayed a CC50 of 1000 to 10000 nM.

For `CN[C@@H](C)C(=O)N[C@H](C(=O)N1CC[C@@H]2[C@H]1[C@@H](c1c[nH]c3cc(F)ccc13)CN2C1CCCC1)C(C)C` [Example 8], the values for the Kd in assay [1] and in assay [3] were below 100 nM and 100 to 1000 nM, respectively. In addition, in assay [2], the CC50 was 100 to 1000 nM.

Consider `CO[C@H](C)[C@H](NC(=O)[C@H](C)N)C(=O)N1CC[C@H]2NC[C@H](c3cn(Cc4ccccc4)c4cc(F)ccc34)[C@H]21` [Example 93], for which the Kd in assay [1] and in assay [3] was below 100 nM throughout. In assay [2], this molecule registered a CC50 of 1000 to 10000 nM.

Consider `CN[C@@H](C)C(=O)N[C@H](C(=O)N1CC[C@@H]2[C@H]1[C@H](c1c[nH]c3cc(F)ccc13)CN2S(C)(=O)=O)C1CCCCC1` [Example 44], for which the Kd in assay [1] lay in the range of 100 to 1000 nM; in assay [3], 1000 to 10000 nM. The same molecule came in with a CC50 in assay [2] of 1000 to 10000 nM.

As for `CN[C@@H](C)C(=O)N[C@@H](CO)C(=O)N1CC[C@@H]2[C@H]1[C@@H](c1c[nH]c3cc(F)ccc13)CN2C1CCCC1` [Example 11], the Kd in assay [1] is below 100 nM; in assay [3], 100 to 1000 nM. In assay [2], this molecule came in with a CC50 above 10000 nM.
